According to patent US7807703B2, “Substituted aryl ketones” (Bayer CropScience AG, priority 2002, dated 2010):

Columns and labels:
[1] = log P determination by reversed-phase HPLC (EEC Directive 79/831 Annex V.A8; acidic or neutral mobile phase); type: physicochemical; conditions: HPLC reversed-phase C18, 43° C., acidic range: 0.1% aqueous phosphoric acid, acetonitrile gradient (marked a))
Summary of the method: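 Values marked a) used an acidic eluent of 0.1% aqueous phosphoric acid, those marked b) a neutral eluent of 0.01 molar phosphate buffer, each with acetonitrile rising linearly from 10% to 90%. Column C18 at 43° C, following EEC Directive 79/831 Annex V.A8.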

weeds [2] = assay: Post-emergence test (Example B), herbicidal activity; type: in vivo; conditions: test plants of 5-15 cm sprayed, rated after three weeks
Method: (§1) • Solvent: 5 parts by weight of acetone • Emulsifier: 1 part by weight of alkylaryl polyglycol ether
(§2) To produce a suitable preparation of active compound, 1 part by weight of active compound is mixed with the stated amount of solvent, the stated amount of emulsifier is added and the concentrate is diluted with water to the desired concentration.
Test plants of a height of 5-15 cm are sprayed with the preparation of active compound such that the particular amounts of active compound desired are applied per unit area. The concentration of the spray liquor is chosen such that the particular amounts of active compound desired are applied in 1000 l of water/ha.
After three weeks, the degree of damage to the plants is rated in % damage in comparison to the development of the untreated control.
The figures denote: • 0%=no effect (like untreated control) • 100%=total destruction

weeds [3] = assay: Pre-emergence test (Example A), herbicidal activity; type: in vivo; conditions: soil sprayed 24 hours after sowing, rated after three weeks
Method: as §1, §2
Seeds of the test plants are sown in normal soil. After 24 hours, the soil is sprayed with the preparation of active compound such that the particular amount of active compound desired is applied per unit area. The concentration of active compound in the spray liquor is chosen such that the particular amount of active compound desired is applied in 1000 liters of water per hectare.
After three weeks, the degree of damage to the plants is rated in % damage in comparison to the development of the untreated control. The figures denote: • 0%=no effect (like untreated control) • 100%=total destruction

Row | Structure (SMILES) | logP [1] | activity against weeds (degree of damage) (weeds [2]) | activity against weeds (degree of damage) (weeds [3]) | chromatographic logP ([1]; reversed-phase C18 HPLC column, read-out: logP)
1 | CCn1ncc(C(=O)c2ccc(Cl)c(OCCNS(=O)(=O)c3ccc(C)cc3)c2Cl)c1O [Example 3] | (I-2) logP = 2.74^a) | strong activity |  | 
2 | CS(=O)(=O)NCCOc1c(Cl)ccc(C(=O)C2C(=O)CCCC2=O)c1Cl [Example 5] | logP = 2.16^a) | strong activity | strong activity | 
3 | CCn1ncc(C(=O)c2ccc(Cl)c(OCCNS(=O)(=O)CC)c2Cl)c1O [Example 2, 4-[2,4-dichloro-3-(N-ethylsulphonylaminoethoxy)benzoyl]-1-ethyl-5-hydroxypyrazole] |  | strong activity | strong activity | 1.86
4 | CCn1ncc(C(=O)c2ccc(Cl)c(OCCNS(C)(=O)=O)c2Cl)c1O [Example 6] | logP = 1.65^a) |  | strong activity | 
5 | CCS(=O)(=O)NCCOc1c(Cl)ccc(C(=O)C2C(=O)CCCC2=O)c1Cl [Example 4] | logP = 2.36^a) | strong activity | strong activity | 
